Experimental data taken from patent publication US20240016748A1, “DIRECT DELIVERY OF VITAMINS TO INHIBIT MICROBIAL PATHOGENS” (DSM IP ASSETS B.V., priority 2020, published 2024).

Tests used:
[1] = test system: adherent-invasive E. coli (AIEC); test: Short-term pathogen challenge test, AIEC; assay type: cell-based, Escherichia coli; settings: positive control, 125 ppm; 48 h colonic incubation
Salmonella enteritidis = test: Short-term pathogen challenge test, Salmonella enteritidis; assay type: cell-based; settings: positive control, 125 ppm; 48 h colonic incubation

## O=C(O)c1cn(C2CC2)c2cc(N3CCNCC3)c(F)cc2c1=O [ciprofloxacin]
[1]
  abundance of AIEC: decreased abundance of AIEC
Salmonella enteritidis
  abundance of Salmonella enteritidis: strongly decreased abundance of Salmonella enteritidis
